Data as given in article PMC11033320, “Activation of p53 signaling and regression of breast and prostate carcinoma cells by spirooxindole-benzimidazole small molecules” (Frontiers in Pharmacology, 2024).

How the values were obtained:
SK-OV-3 = assay: NCI anticancer screening, Ovarian Cancer SK-OV-3; format: cell-based; conditions: Homo sapiens; SK-OV-3, 10 μM; read-out: % Growth Inhibition (GI %)
Source text: (§1) The compound has been processed according to standard method NCI-60 Human Tumor Cell Lines Screen for organic compound at development therapeutic program (DTP). Requests for access to this national resource can be submitted online at: […]

OVCAR-3 = assay: NCI anticancer screening, Ovarian Cancer OVCAR-3; format: cell-based; conditions: Homo sapiens; OVCAR-3, 10 μM; read-out: % Growth Inhibition (GI %)
Source text: as §1

NCI-H226 = assay: NCI anticancer screening, Non-Small Cell Lung Cancer NCI-H226; format: cell-based; conditions: Homo sapiens; NCI-H226, 10 μM; read-out: % Growth Inhibition (GI %)
Source text: as §1

MDA-MB-435 = assay: NCI anticancer screening, Melanoma MDA-MB-435; format: cell-based; conditions: Homo sapiens; MDA-MB-435, 10 μM; read-out: % Growth Inhibition (GI %)
Source text: as §1

SR = assay: NCI anticancer screening, Leukemia SR; format: cell-based; conditions: Homo sapiens, read-out: % Growth Inhibition (GI %)
Source text: as §1

SN12C = assay: NCI anticancer screening, Renal Cancer SN12C; format: cell-based; conditions: Homo sapiens, read-out: % Growth Inhibition (GI %)
Source text: as §1

CAKI-1 = assay: NCI anticancer screening, Renal Cancer CAKI-1; format: cell-based; conditions: Homo sapiens; CAKI-1, 10 μM; read-out: % Growth Inhibition (GI %)
Source text: as §1

TK-10 = assay: NCI anticancer screening, Renal Cancer TK-10; format: cell-based; conditions: Homo sapiens; TK-10, 10 μM; read-out: % Growth Inhibition (GI %)
Source text: as §1

SNB-75 = assay: NCI anticancer screening, CNS Cancer SNB-75; format: cell-based; conditions: Homo sapiens; SNB-75, 10 μM; read-out: % Growth Inhibition (GI %)
Source text: as §1

SF-539 = assay: NCI anticancer screening, CNS Cancer SF-539; format: cell-based; conditions: Homo sapiens; SF-539, 10 μM; read-out: % Growth Inhibition (GI %)
Source text: as §1

NCI/ADR-RES = assay: NCI anticancer screening, Ovarian Cancer NCI/ADR-RES; format: cell-based; conditions: Homo sapiens, read-out: % Growth Inhibition (GI %)
Source text: as §1

HCC-2998 = assay: NCI anticancer screening, Colon Cancer HCC-2998; format: cell-based; conditions: Homo sapiens; HCC-2998, 10 μM; read-out: % Growth Inhibition (GI %)
Source text: as §1

HCT-15 = assay: NCI anticancer screening, Colon Cancer HCT-15; format: cell-based; conditions: Homo sapiens; HCT-15, 10 μM; read-out: % Growth Inhibition (GI %)
Source text: as §1

COLO 205 = assay: NCI anticancer screening, Colon Cancer COLO 205; format: cell-based; conditions: Homo sapiens; COLO 205, 10 μM; read-out: % Growth Inhibition (GI %)
Source text: as §1

HCT-116 = assay: NCI anticancer screening, Colon Cancer HCT-116; format: cell-based; conditions: Homo sapiens; HCT-116, 10 μM; read-out: % Growth Inhibition (GI %)
Source text: as §1

SF-295 = assay: NCI anticancer screening, CNS Cancer SF-295; format: cell-based; conditions: Homo sapiens; SF-295, 10 μM; read-out: % Growth Inhibition (GI %)
Source text: as §1

HOP-62 = assay: NCI anticancer screening, Non-Small Cell Lung Cancer HOP-62; format: cell-based; conditions: Homo sapiens; HOP-62, 10 μM; read-out: % Growth Inhibition (GI %)
Source text: as §1

[1] = biological target: T1, Mdm2 (residues 1–118 T47W) (Homo sapiens, UniProt Q00987, T47W); assay: MDM2 binding by microscale thermophoresis (MST)
T1 construct: Mdm2 (residues 1–118 T47W; 500 nM)
Procedure: MST is a complementary biophysical assay to assess the binding of a small molecule to its receptor. […] Experiments were performed in 50 mM phosphate buffer at pH 7.4 containing 150 mM NaCl, 5 mM DTT, and 5% DMSO. […] Kd values and uncertainties were calculated using the MO Affinity Analysis software.

IGROV1 = assay: NCI anticancer screening, Ovarian Cancer IGROV1; format: cell-based; conditions: Homo sapiens, IGROV-1; IGROV1, 10 μM; read-out: % Growth Inhibition (GI %)
Source text: as §1

CCRF-CEM = assay: NCI anticancer screening, Leukemia CCRF-CEM; format: cell-based; conditions: Homo sapiens, read-out: % Growth Inhibition (GI %)
Source text: as §1

MDA-MB-468 = assay: NCI anticancer screening, Breast Cancer MDA-MB-468; format: cell-based; conditions: Homo sapiens, read-out: % Growth Inhibition (GI %)
Source text: as §1

HL-60(TB) = assay: NCI anticancer screening, Leukemia HL-60(TB); format: cell-based; conditions: Homo sapiens, read-out: % Growth Inhibition (GI %)
Source text: as §1

OVCAR-5 = assay: NCI anticancer screening, Ovarian Cancer OVCAR-5; format: cell-based; conditions: Homo sapiens; OVCAR-5, 10 μM; read-out: % Growth Inhibition (GI %)
Source text: as §1

EKVX = assay: NCI anticancer screening, Non-Small Cell Lung Cancer EKVX; format: cell-based; conditions: Homo sapiens, read-out: % Growth Inhibition (GI %)
Source text: as §1

ACHN = assay: NCI anticancer screening, Renal Cancer ACHN; format: cell-based; conditions: Homo sapiens, read-out: % Growth Inhibition (GI %)
Source text: as §1

U251 = assay: NCI anticancer screening, CNS Cancer U251; format: cell-based; conditions: Homo sapiens, U-251; U251, 10 μM; read-out: % Growth Inhibition (GI %)
Source text: as §1

NCI-H23 = assay: NCI anticancer screening, Non-Small Cell Lung Cancer NCI-H23; format: cell-based; conditions: Homo sapiens; NCI-H23, 10 μM; read-out: % Growth Inhibition (GI %)
Source text: as §1

OVCAR-8 = assay: NCI anticancer screening, Ovarian Cancer OVCAR-8; format: cell-based; conditions: Homo sapiens; OVCAR-8, 10 μM; read-out: % Growth Inhibition (GI %)
Source text: as §1

SK-MEL-2 = assay: NCI anticancer screening, Melanoma SK-MEL-2; format: cell-based; conditions: Homo sapiens; SK-MEL-2, 10 μM; read-out: % Growth Inhibition (GI %)
Source text: as §1

[2] = test system: leukemia cells (CCRF-CEM; HL-60 (TB); K-562; MOLT-4; RPMI-8226, SR); assay: NCI anticancer screening, leukemia subpanel; format: cell-based, human; conditions: smaller GI% than the other compounds
Source text: as §1

T1 sequence (Q00987 1-118 T47W): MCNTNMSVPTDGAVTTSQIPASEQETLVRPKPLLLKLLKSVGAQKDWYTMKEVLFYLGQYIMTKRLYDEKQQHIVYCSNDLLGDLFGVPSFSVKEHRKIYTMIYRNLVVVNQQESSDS

Row | SMILES | inhibition at 10 µM (OVCAR-3) [%] | inhibition at 10 µM (NCI-H226) [%] | inhibition at 10 µM (MDA-MB-435) [%] | inhibition at 10 µM (SR) [%] | inhibition at 10 µM (SN12C) [%] | inhibition at 10 µM (CAKI-1) [%] | inhibition at 10 µM (TK-10) [%] | inhibition at 10 µM (SNB-75) [%] | inhibition at 10 µM (SF-539) [%] | inhibition at 10 µM (NCI/ADR-RES) [%] | inhibition at 10 µM (HCC-2998) [%] | inhibition at 10 µM (HCT-15) [%] | inhibition at 10 µM (HCT-116) [%] | inhibition at 10 µM (SF-295) [%] | inhibition at 10 µM (HOP-62) [%] | inhibition at 10 µM (IGROV1) [%] | inhibition at 10 µM (CCRF-CEM) [%] | inhibition at 10 µM (MDA-MB-468) [%] | inhibition at 10 µM (HL-60(TB)) [%] | inhibition at 10 µM (OVCAR-5) [%] | also measured
1 | O=C(c1nc2ccccc2[nH]1)[C@H]1[C@H](c2ccccc2)C2CSCN2[C@]12C(=O)Nc1ccccc12 (mixture of isomers) [Compound 6a, (3S,6′R)-6'-(1H-benzo [d]imidazole-2-carbonyl)-7′-phenyl-3′,6′,7′,7a′-tetrahydro-1′H-spiro [indoline-3.5′-pyrrolo [1,2-c]thiazol]-2-one] | 110 | 95.3 | 103 | 94.2 | 106 | 86 | 110 | 79.8 | 95.1 | 105 | 109 | 109 | 106 | 104 | 99.3 | 91.4 | 111 | 100 | 101 | 104 | inhibition at 10 µM (SK-OV-3): 99.1%; inhibition at 10 µM (COLO 205): 99.9%; Kd [1]: 87.7 µM; inhibition at 10 µM (EKVX): 106%; inhibition at 10 µM (ACHN): 99.5%; inhibition at 10 µM (U251): 93.9%; inhibition at 10 µM (NCI-H23): 104%; inhibition at 10 µM (OVCAR-8): 96.1%; inhibition at 10 µM (SK-MEL-2): 101%
2 | Cc1ccc([C@@H]2C3CSCN3[C@]3(C(=O)Nc4ccccc43)[C@H]2C(=O)c2nc3ccccc3[nH]2)cc1 (mixture of isomers) [Compound 6d, (3S,6′R)-6'-(1H-Benzo [d]imidazole-2-carbonyl)-7'-(p-tolyl)-3′,6′,7′,7a′-tetrahydro-1′H-spiro [indoline-3.5′-pyrrolo [1,2-c]thiazol]-2-one] | 89 | 73.9 | 70.6 | 102 | 85.2 | 54.5 | 94.5 | 61.4 | 81.9 | 86.2 | 94.9 | 83.6 | 74.5 | 59 | 105 | 75 | 89.5 | 63.5 | 96.2 | 95.2 | inhibition at 10 µM (SK-OV-3): 94.2%; inhibition at 10 µM (COLO 205): 81.9%; Kd [1]: 17.4 µM; inhibition at 10 µM (EKVX): 71.6%; inhibition at 10 µM (ACHN): 88.9%; inhibition at 10 µM (U251): 73.3%; inhibition at 10 µM (NCI-H23): 91.2%; inhibition at 10 µM (OVCAR-8): 95.9%; inhibition at 10 µM (SK-MEL-2): 93.6%
3 | O=C(c1nc2ccccc2[nH]1)[C@H]1[C@H](c2ccc(Cl)cc2)C2CSCN2[C@]12C(=O)Nc1ccccc12 (stereo partly drawn) [Compound 6b, (3S,6′R)-6'-(1H-Benzo [d]imidazole-2-carbonyl)-7'-(4-chlorophenyl)-3′,6′,7′,7a′-tetrahydro-1′H-spiro [indoline-3.5′-pyrrolo [1,2-c]thiazol]-2-one] | 86.4 | 74 | 79.9 | 65.9 | 80.7 | 68.3 | 121 | 69.1 | 84.1 | 84.7 | 92.1 | 76.6 | 60.5 | 77.5 | 91.7 | 68.9 | 86.3 | 89.4 | 98.3 | 92.5 | inhibition at 10 µM (EKVX): 80.7%; inhibition at 10 µM (ACHN): 78.2%; inhibition at 10 µM (U251): 81.2%; inhibition at 10 µM (NCI-H23): 81.4%; inhibition at 10 µM (OVCAR-8): 89.5%; inhibition at 10 µM (SK-MEL-2): 110%; GI% for MOLT-4, RPMI-8226, and SR cancer cells [2]: 75%
4 | O=C(c1nc2ccccc2[nH]1)[C@H]1[C@H](c2ccc(Cl)cc2Cl)C2CSCN2[C@]12C(=O)Nc1ccccc12 (stereo partly drawn) [Compound 6g, (3S,6′R)-6'-(1H-Benzo [d]imidazole-2-carbonyl)-7'-(2,4-dichlorophenyl)-3′,6′,7′,7a′-tetrahydro-1′H-spiro [indoline-3.5′-pyrrolo [1,2-c]thiazol]-2-one] | 69.7 | 61.8 | 56 | 45.8 | 63 | 36.9 | 107 | 59.7 | 76.4 | 68.4 | 70.3 | 56 | 56.4 | 63.7 | 80.3 | 54.8 | 60.1 | 69.2 | 80.7 | 86.1 | inhibition at 10 µM (EKVX): 63.5%; inhibition at 10 µM (ACHN): 63.7%; inhibition at 10 µM (U251): 79%; inhibition at 10 µM (NCI-H23): 85.4%; inhibition at 10 µM (OVCAR-8): 77%; inhibition at 10 µM (SK-MEL-2): 84.4%; GI% for MOLT-4, RPMI-8226, and SR cancer cells [2]: 75%
5 | O=C(c1nc2ccccc2[nH]1)[C@H]1[C@H](c2ccc(Br)cc2)C2CSCN2[C@]12C(=O)Nc1ccccc12 (stereo partly drawn) [Compound 6l, (3S,6′R)-6'-(1H-Benzo [d]imidazole-2-carbonyl)-7'-(4-bromophenyl)-3′,6′,7′,7a′-tetrahydro-1′H-spiro [indoline-3.5′-pyrrolo [1,2-c]thiazol]-2-one] | 79.8 | 74.8 | 67.9 | 54.1 | 82.8 | 60.3 | 145 | 68 | 82.4 | 83.2 | 79.4 | 67 | 59.2 | 63.9 | 88.7 | 63.6 | 88.2 | 87.2 | 89.9 | 95.9 | Kd [1]: 49.9 µM; inhibition at 10 µM (EKVX): 68.8%; inhibition at 10 µM (ACHN): 74.6%; inhibition at 10 µM (U251): 75.8%; inhibition at 10 µM (NCI-H23): 75%; inhibition at 10 µM (OVCAR-8): 89.8%; inhibition at 10 µM (SK-MEL-2): 107%; GI% for MOLT-4, RPMI-8226, and SR cancer cells [2]: 75%
